Test [1] in a line: Antioxidant activity assessed as inhibition of xanthine/xanthine oxidase system-induced superoxide anion radical scavenging activity after 20 mins. It is filed as functional.
Test [2] relates to Radical scavenging activity. Description: Antioxidant activity assessed as DPPH radical scavenging activity after 30 mins. The class given is functional. A general note: DPPH is a stable violet radical that fades when it is reduced.
The species entered for a further test is Rattus norvegicus. Description: (§1) Neuroprotective activity against H2O2-induced neuronal damage in Sprague-Dawley rat cerebral cortical cells after 20 to 24 hrs by MTT assay. It is filed as functional. (Tetrazolium assays rely on reduction of a dye to a coloured formazan, in cell work by metabolically active cells.)
The nature of test [3]: as §1. It is filed as functional.
The test system of the next test is Liver. The experiment in a line: Antioxidant activity in rat liver homogenate assessed as inhibition of iron-ascorbic acid mix-induced lipid peroxidation by TBARS assay. The class given is functional, tissue-based.

Consider nine molecules from ChEMBL document CHEMBL1154194, “Glucose-containing flavones--their synthesis and antioxidant and neuroprotective activities” (Bioorg Med Chem Lett, 2009).

Where only a bound is given, the exact number is not on record here.

In general, IC50 refers to the midpoint of a concentration-inhibition curve. As to `O=c1cc(-c2ccc(O)c(O)c2)oc2cc(OC3O[C@@H](CO)[C@H](O)[C@@H](O)[C@@H]3O)cc(O)c12` (stereo partly specified), the half-maximal inhibitory concentration (IC50) turned out to be 3.28 µM in test [1], 17.3 µM in test [2], 7.33 µM in test [3] and 40.4 µM in the test with Liver. Also, the Activity entry in the test listed under Rattus norvegicus was “Dose-dependent effect”.

In the case of `O=c1cc(-c2ccc(O)c(O)c2)oc2cc(O)cc(O)c12` [LUTEOLIN], the IC50 in test [1] is 8.66 µM; in test [2], 16.2 µM; in test [3], 3.75 µM; with Liver it was 24.7 µM.

For the molecule `O=c1cc(-c2ccc(O)c(O)c2)oc2cc(OCCOC[C@@H]3OC(O)[C@@H](O)[C@H](O)[C@H]3O)cc(O)c12` (stereo partly specified), the half-maximal inhibitory concentration (IC50) was found to be 3.53 µM in test [1], 18.5 µM in test [2], 15.7 µM in test [3] and 47.8 µM in the test on Liver. The Activity result in the test filed under Rattus norvegicus was “Dose-dependent effect”.

As for `COc1c(-c2ccc(O)c(O)c2)oc2cc(OC3O[C@@H](CO)[C@H](O)[C@@H](O)[C@@H]3O)cc(O)c2c1=O` (stereo partly specified), the half-inhibitory concentration (IC50) in test [1] was determined as 10.2 µM; in test [2], 16.9 µM; in test [3], 30.7 µM; in the test with Liver, 43.2 µM. The Activity result in the test listed under Rattus norvegicus was “Dose-dependent effect”.

In the case of `O=C1O[C@H]([C@@H](O)CO)C(O)=C1O` [ASCORBIC ACID], the values for the concentration for half-maximal inhibition (IC50) (in test [1]; in test [2]; in the test on Liver) were over 300 µM, 41 µM and over 300 µM, respectively.

For `COc1c(-c2ccc(O)c(O)c2)oc2cc(OCC(=O)OC[C@@H]3OC(O)[C@@H](O)[C@H](O)[C@H]3O)cc(O)c2c1=O` (stereo partly specified), the IC50 in test [1] is 32.9 µM; in test [2], 19.7 µM; in test [3] it was 5.34 µM; in the test with Liver, 66.7 µM. The Activity result in the test listed under Rattus norvegicus is “Dose-dependent effect”.

With `COc1c(-c2ccc(O)c(O)c2)oc2cc(O)cc(O)c2c1=O` [3-O-METHYLQUERCETIN], the half-maximal inhibitory concentration (IC50) turned out to be 17.4 µM in test [1], 14.2 µM in test [2], 3.5 µM in test [3] and 19 µM in the test on Liver.

Consider `O=C(COc1cc(O)c2c(=O)cc(-c3ccc(O)c(O)c3)oc2c1)OC[C@@H]1OC(O)[C@@H](O)[C@H](O)[C@H]1O` (stereo partly specified), for which the 50% inhibitory concentration (IC50) in test [1] is 6.22 µM; in test [2] it was 16.7 µM; in test [3], 12.7 µM; in the test on Liver, 47.9 µM. Moreover, in the test listed under Rattus norvegicus, the Activity result was “Dose-dependent effect”.

In the case of `COc1c(-c2ccc(O)c(O)c2)oc2cc(OCCOC[C@@H]3OC(O)[C@@H](O)[C@H](O)[C@H]3O)cc(O)c2c1=O` (stereo partly specified), the IC50 in test [1] is 12.8 µM; in test [2] it was 15.6 µM; in test [3], 58.4 µM; in the test with Liver it was 78 µM. For the same molecule, the Activity entry in the test filed under Rattus norvegicus was “Dose-dependent effect”.
